Where a SMILES comes first, the peptide text is derived from it. Bridges are numbered along the chain shown (N, C = ends).

From ChEMBL document CHEMBL5131510, “Proteostasis Regulators in Cystic Fibrosis: Current Development and Future Perspectives” (J Med Chem, 2022) come the findings set out here.

Assay [1] addresses T1, Golgi-associated PDZ and coiled-coil motif-containing protein (Homo sapiens, UniProt Q9HD26). The assay can be described thus: Inhibition of CAL PDZ domain (unknown origin) assessed as inhibition constant by fluorescence polarization competition assay.
For assay [2], the system named is Cystic fibrosis transmembrane conductance regulator (Homo sapiens), P13569 [F508del]. The assay can be described thus: Modulation of F508del-CFTR mutant transfected in human HEK293 cells assessed as fold increase in level of ER glycosylated form of F508del-CFTR at 30 uM treated for 24 hrs by immunoblot assay. The assay is classed as cell-based. To be noted: filed as modulator.
Sequence of Cystic fibrosis transmembrane conductance regulator (Homo sapiens), P13569 [F508del] (P13569 as listed by the source): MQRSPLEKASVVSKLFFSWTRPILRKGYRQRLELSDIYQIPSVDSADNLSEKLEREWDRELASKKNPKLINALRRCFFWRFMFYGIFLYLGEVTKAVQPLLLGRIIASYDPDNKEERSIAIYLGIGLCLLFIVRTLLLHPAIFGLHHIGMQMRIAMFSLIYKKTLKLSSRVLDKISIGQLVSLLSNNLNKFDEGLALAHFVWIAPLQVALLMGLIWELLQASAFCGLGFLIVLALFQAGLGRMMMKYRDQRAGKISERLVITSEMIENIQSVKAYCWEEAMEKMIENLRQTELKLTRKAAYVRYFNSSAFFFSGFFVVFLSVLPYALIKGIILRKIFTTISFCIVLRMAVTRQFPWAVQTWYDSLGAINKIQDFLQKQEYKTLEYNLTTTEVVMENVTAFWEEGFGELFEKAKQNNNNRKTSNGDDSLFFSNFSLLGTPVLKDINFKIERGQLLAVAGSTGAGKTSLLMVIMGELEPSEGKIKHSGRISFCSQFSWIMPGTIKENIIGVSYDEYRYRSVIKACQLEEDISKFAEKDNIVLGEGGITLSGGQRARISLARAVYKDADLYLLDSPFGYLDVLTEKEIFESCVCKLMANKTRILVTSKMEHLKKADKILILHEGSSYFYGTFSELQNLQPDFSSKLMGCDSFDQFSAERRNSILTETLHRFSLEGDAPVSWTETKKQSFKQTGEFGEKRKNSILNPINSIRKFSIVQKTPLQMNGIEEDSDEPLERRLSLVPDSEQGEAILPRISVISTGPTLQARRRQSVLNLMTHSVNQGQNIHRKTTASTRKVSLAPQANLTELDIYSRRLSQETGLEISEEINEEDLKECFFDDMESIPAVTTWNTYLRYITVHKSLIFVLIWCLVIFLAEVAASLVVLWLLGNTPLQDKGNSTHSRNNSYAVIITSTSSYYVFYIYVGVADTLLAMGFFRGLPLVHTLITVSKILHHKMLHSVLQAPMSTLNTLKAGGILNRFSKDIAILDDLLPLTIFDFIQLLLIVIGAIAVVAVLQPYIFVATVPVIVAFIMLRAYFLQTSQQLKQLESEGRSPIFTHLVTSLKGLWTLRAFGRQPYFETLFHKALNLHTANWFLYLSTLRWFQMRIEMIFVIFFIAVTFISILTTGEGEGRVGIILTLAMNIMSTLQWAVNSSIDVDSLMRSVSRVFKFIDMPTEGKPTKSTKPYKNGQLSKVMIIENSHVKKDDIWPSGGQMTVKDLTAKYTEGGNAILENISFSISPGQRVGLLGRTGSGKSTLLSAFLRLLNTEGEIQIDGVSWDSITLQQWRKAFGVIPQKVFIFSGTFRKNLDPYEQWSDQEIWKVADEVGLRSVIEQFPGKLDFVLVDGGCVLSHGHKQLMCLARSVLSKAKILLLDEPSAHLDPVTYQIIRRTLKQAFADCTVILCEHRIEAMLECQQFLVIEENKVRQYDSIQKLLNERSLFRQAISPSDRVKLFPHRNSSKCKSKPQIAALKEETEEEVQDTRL

Assay [3] shares this test system. As to the kind of experiment: Stabilization of F508del-CFTR in human CFBE41o- cells assessed as OUTB1 occupancy by Proteomic analysis relative to control. The assay is classed as cell-based.
Assay [4] has the same test system. As to the kind of experiment: Modulation of F508del-CFTR mutant in HBE cells assessed as fold increase in CFTR mRNA levels by […]. It counts as cell-based. To be noted: filed as modulator.
Assay [5] concerns the target T1, Golgi-associated PDZ and coiled-coil motif-containing protein. The assay can be described thus: Binding affinity to CAL PDZ domain (unknown origin) assessed as dissociation constant in presence of tris(carboxylethyl)phosphine by fluorescence anisotropy analysis.
The nature of assay [6]: Rescue of F508del-CFTR residual channel activity in hamster BHK cells assessed as fold increase in forskolin/genistein-induced iodide efflux measured every minute for 10 mins.
The nature of assay [7]: Inhibition of Hsp40-stimulated yeast Hsp70 ATPase activity assessed as inhibition constant by single-turnover assay. The arrangement: species or system Saccharomyces cerevisiae.
The nature of assay [8]: Ex vivo inhibition of PARP-1 in ileum of cystic fibrosis mouse model assessed as rescue of F508del-CFTR activity at 1 nM treated for 4 hrs in presence of forskolin/genistein relative to control. The assay is classed as functional. Details: scale not given: the % may be the effect or the level left.
The test system of the next assay is Mus musculus. As to the kind of experiment: In vivo rescue of F508del-CFTR activity in cystic fibrosis mouse model assessed as measuring salivary secretion at 5 mg/kg/day, ip qd for 2 days relative to control. The assay is classed as functional. To be noted: time 2 day.
In assay [9] the target is T2, Protein mono-ADP-ribosyltransferase PARP3 (Homo sapiens, UniProt Q9Y6F1).
T2 sequence (Q9Y6F1 whole entry): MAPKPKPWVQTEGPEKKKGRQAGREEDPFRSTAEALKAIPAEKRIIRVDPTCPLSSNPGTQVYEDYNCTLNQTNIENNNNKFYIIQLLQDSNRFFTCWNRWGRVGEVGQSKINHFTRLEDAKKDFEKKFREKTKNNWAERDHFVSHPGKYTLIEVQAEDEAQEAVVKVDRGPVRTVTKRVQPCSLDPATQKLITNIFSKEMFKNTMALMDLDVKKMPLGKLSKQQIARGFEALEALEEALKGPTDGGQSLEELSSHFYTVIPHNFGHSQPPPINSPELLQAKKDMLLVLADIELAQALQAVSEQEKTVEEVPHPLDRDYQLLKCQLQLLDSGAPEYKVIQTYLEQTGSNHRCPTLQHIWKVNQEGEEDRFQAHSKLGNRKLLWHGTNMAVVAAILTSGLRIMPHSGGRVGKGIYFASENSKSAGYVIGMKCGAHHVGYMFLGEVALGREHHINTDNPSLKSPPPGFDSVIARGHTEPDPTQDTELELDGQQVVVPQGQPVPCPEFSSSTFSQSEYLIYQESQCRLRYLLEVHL
The assay can be described thus: Inhibition of recombinant human PARP3 expressed in baculovirus expression system using anchored-histone proteins as substrate incubated for 1 hr by chemiluminescence assay.

The target of assay [10] is T3, Protein mono-ADP-ribosyltransferase PARP16 (Homo sapiens, UniProt Q8N5Y8).
T3 sequence (Q8N5Y8 whole entry): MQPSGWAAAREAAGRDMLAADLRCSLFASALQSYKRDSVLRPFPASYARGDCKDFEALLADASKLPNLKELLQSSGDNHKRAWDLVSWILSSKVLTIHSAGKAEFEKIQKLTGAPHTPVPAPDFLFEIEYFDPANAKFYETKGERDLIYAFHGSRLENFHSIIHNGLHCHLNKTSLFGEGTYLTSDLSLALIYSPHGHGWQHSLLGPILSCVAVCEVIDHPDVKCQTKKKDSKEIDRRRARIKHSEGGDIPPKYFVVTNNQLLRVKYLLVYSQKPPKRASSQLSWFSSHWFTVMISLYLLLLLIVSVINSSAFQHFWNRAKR
As to the kind of experiment: Inhibition of PARP16 (unknown origin) using 6xHis-tagged IRE-1 as substrate incubated for 1 hr by chemiluminescence assay.

The species entered for another assay is Homo sapiens. The assay can be described thus: Inhibition of Hsp70 ATPase activity (unknown origin) at 200 uM incubated for 3 hrs in presence of ATP by malachite green assay relative to control.

Regarding `CC(=O)N[C@@H](Cc1c[nH]c2ccccc12)C(=O)N[C@@H](CCC(N)=O)C(=O)N[C@H](C(=O)N[C@H](C(=O)N[C@@H](CCCNC(=N)N)C(=O)N[C@H](C(=O)O)C(C)C)[C@@H](C)O)C(C)C` (Ac-WQVTRV-OH), the Ki in [1] is 2.3 µM.
As for `CC1=C(C(=O)OCc2ccccc2)C(c2ccc(Cl)cc2Cl)NC(=O)N1CCCC(=O)O` (stereo not given), the fold change (FC) in [2] worked out at 2.1.
For `C=CC(=O)N1CCN(c2ccc(CCC(=O)NCCCCCNC(=O)c3cccc(-c4nc(NC(=O)C5(c6ccc7c(c6)OC(F)(F)O7)CC5)ccc4C)c3)o2)C(=O)C1`, in assay [3], the Activity worked out at 60%.
Consider `O=C(NCCCn1nncc1CO)c1cc(-c2ccccc2)on1`, for which the fold change (FC) in assay [4] is 1.5.
As to `CC(=O)N[C@H]1CSSC[C@@H](C(=O)N[C@H](C(=O)N[C@@H](CCCNC(=N)N)C(=O)N[C@H](C(=O)O)C(C)C)[C@@H](C)O)NC(=O)[C@H](CCC(N)=O)NC(=O)[C@H](Cc2c[nH]c3ccccc23)NC(=O)[C@H](Cc2ccccc2)NC(=O)[C@H](CCCNC(=N)N)NC(=O)[C@H](CCCNC(=N)N)NC(=O)[C@H](CCCNC(=N)N)NC(=O)[C@H](CCCNC(=N)N)NC1=O` (Ac-CRRRRFWQCTRV-OH; disulfide 1-9), the Kd in assay [5] is 0.49 µM.
As for `N#CCc1nnc(-c2ccccn2)[nH]1`, the “fold change (FC)” value in assay [6] worked out at 2.5.
On to `CCCCCCCCCCCCC/C=C/[C@@H](O)[C@H](COC1O[C@H](CO)[C@H](O)[C@H](OS(=O)(=O)O)[C@H]1O)NC(=O)CC12CC3CC(CC(C3)C1)C2` (stereo not given in full), for which the Ki in assay [7] worked out at 10 µM.
`C[C@]1(c2nc3c(C(N)=O)cccc3[nH]2)CCCN1` [VELIPARIB]: the Activity is 7% in [8] and 7.8% with Mus musculus.
For `O=C1NC[C@@H](c2ccccn2)[C@@H](O)c2cc(Cl)c(Cl)cc21`, the half-inhibitory concentration (IC50) in assay [9] came out at 74.1 µM; in [10], 0.362 µM.
Regarding `COc1ccc(-c2nc(-c3cc(C(F)(F)F)cc(C(F)(F)F)c3)n(Cc3ccc(C(N)=O)cc3)c2-c2ccc(OC)cc2)cc1`, the inhibition in the assay listed under Homo sapiens stood at 55%.
`CCN(CC)c1ccc(N/N=C2\C(=O)C=Cc3ccccc32)cc1`: the “fold change (FC)” value in [6] was found to be 2.5.
For the compound `O=C1NC[C@@H](c2ccccc2)[C@@H](O)c2ccccc21`, the IC50 turned out to be 3.1 µM in assay [9] and 296 µM in assay [10].
